Data reported in patent US11478513B2, “Cutibacterium avidum strain, and composition for preventing or treating atopic dermatitis, comprising strain or cultured product thereof” (priority 2018, dated 2022).

Columns and labels:
[1] = system: Staphylococcus aureus KCTC 1621; experiment: Growth inhibition, overlay clear zone test (S. aureus); assay type: cell-based; conditions: RCM agar overlay, anaerobic, 37° C., about 40 hours; triclosan 10 mg/ml
Experimental: (§1) The effect of growth inhibition of S. aureus and C. acnes was confirmed by observing formation of a clear zone. […] The experiment was progressed, expecting that S. aureus and C. acnes around Cutibacterium avidum GENSC01 could not grow and they became transparent, if Cutibacterium avidum GENSC01 had the effect of inhibiting the growth of bacteria. The Cutibacterium avidum GENSC01 culture broth was collected with a platinum loop and was anaerobically cultured in a thin RCM agar plate at 37° C. for 72 hours by drawing a line about 2.5 cm. After confirming that Cutibacterium avidum GENSC01 sufficiently grew, S. aureus and C. acnes strains adjusted to 10^4 cfu/ml were inoculated in 10 ml RCM agar at about 45° C. which was not yet solidified, and they were well suspended before the medium was hardened, and they were evenly solidified by pouring them on the agar plate in which Cutibacterium avidum GENSC01 grew. In the solidified agar plate, S. aureus and C. acnes were further cultured anaerobically at 37° C. for about 40 hours and about 72 hours, respectively, to observe the size of the clear zone appearing around Cutibacterium avidum GENSC01. As the negative control group, phosphate-buffered saline (PBS) was used, and as the positive control group, triclosan was used, and S. aureus and C. acnes were treated at an amount of 10 mg/ml and 200 mg/ml, respectively.

[2] = system: Cutibacterium acnes ATCC 6919; experiment: Growth inhibition, overlay clear zone test (C. acnes); assay type: cell-based; conditions: RCM agar overlay, anaerobic, 37° C., about 72 hours; triclosan 200 mg/ml
Experimental: as §1

IL-6 = IL-6 RNA expression in HaCaT cells treated with heat-treated C. acnes; assay type: cell-based, human; conditions: pre-treated 1 hour, heat-treated C. acnes (100MOI) 4 hours, real-time PCR; FIG. 12
Experimental: (§2) At first, GENSCO1 fermented filtrates were pre-treated for 1 hour to cells in which 2×10^5 of HaCaT human keratinocyte lines were attached in a 6-well plate, respectively, by culturing them in a 37° C. and 5% CO2 incubator for 24 hours. Then, the heat-treated C. acnes (100MOI) was treated and was reacted for 4 hours. Then, after extracting RNA for each sample, the RNA expression for the inflammation response cytokine factors, IL-6 and IL-8 was confirmed by real-time PCR.

IL-8 = IL-8 RNA expression in HaCaT cells treated with heat-treated C. acnes; assay type: cell-based, human; conditions: pre-treated 1 hour, heat-treated C. acnes (100MOI) 4 hours, real-time PCR; compared to control group induced to C. acnes; FIG. 11
Experimental: as §2

HaCaT cells = experiment: Cytotoxicity (MTT) in HaCaT cells; assay type: cell-based, human; conditions: experimental group in which rosmarinic acid was added, 48 hours
Experimental: To evaluate the cytotoxicity of fermented filtrates prepared in the Example 3, the following experiment was progressed. HaCaT cells were attached on a 96-well cell culture plate for 24 hours at 5×10^3 cells/well each and then the test group samples were added by concentration to culture it under the condition of 5% CO2 and 37° C. for 48 hours. 48 hours later, the cultured cell medium was removed, and 0.5 mg/ml dimethylthiazol-2-y1)-2-5-diphenyltetrazolium bromide (MTT) formazan solution was treated to cells, and they were reacted for 4 hours, and after the time passage, all the cell medium was removed and the formazan solution was dissolved by DMSO and then the absorbance was measured at 570 nm with SpectraMax M2. Then, the survival rate of the HaCaT cell line was calculated by converting with the equation of O.Dsample/O.Dcontrol×100.

Structure (SMILES) | growth inhibition of S. aureus (clear zone) [1] | growth inhibition of C. acnes (clear zone) [2] | expression of IL-6 (IL-6) | IL-8 expression (inflammation response) (IL-8) | cell survival rate (HaCaT cells)
Oc1cc(Cl)ccc1Oc1ccc(Cl)cc1Cl [triclosan] | the clear zone was observed, but it had much smaller area than GENSC01 treatment | the clear zone was observed, but it had much smaller area than GENSC01 treatment |  |  | 
O=C(/C=C/c1ccc(O)c(O)c1)O[C@H](Cc1ccc(O)c(O)c1)C(=O)O [rosmarinic acid] |  |  | reduced at a similar level | inflammation response was reduced | could be increased
